Values belong to the molecule of their own block, whether it stands above or below them.
Key:
[1] = Flumazenil biotransformation in rat liver homogenate (HPLC-DAD/tandem MS); type: in vitro ADME
Experimental: (§1) The quantification of flumazenil metabolism by hepatic enzymes was performed using HPLC (Agilent 1100 series, Palo Alto, CA, USA), which is comprised of an online degasser, a binary pump, an auto sampler, a thermostat column oven (maintained at 25 °C), and a diode array detector (DAD, 250 nm). Data were acquired and processed using the Agilent ChemStation software (ed. 10.02). Separation was achieved using a C18 column with a guard column and an ammonium acetate buffer–acetonitrile gradient elution. The mobile phase consisted of eluents A (5 mM ammonium acetate aqueous buffer with 1% ACN, pH 7.0) and B (ACN only) at a flow rate of 0.6 mL min^−1. These were mixed to separate the metabolites and flumazenil from the sample matrices, according to the gradient program shown in Table 1. The overall LC time for flumazenil biotransformation was 15 min. An analyte solution of 5 µL was injected using an auto-sampler thermostat at 4 °C.
(§2) Mass spectrometric analysis of flumazenil in ACN was initially conducted on a 4000 QTrap LC-MS/MS system using API Analyst software 1.4.1 (AB Sciex, Concord, ON, Canada) to obtain the appropriate MS parameters and m/z for flumazenil fragments. Samples were introduced into the spectrometer, either by the HPLC system (Agilent 1100) or by a syringe pump, at a flow rate of 10 µL min^−1 (Harvard Apparatus Inc., Holliston, MA, USA). Chromatographic separation was conducted as described in the HPLC conditions section. The analytes were ionized by a turbo spray ion source (electrospray ionization, [ESI]) in the positive-ion mode at 5000 V and 350 °C. Mass spectra were recorded within a range of 100–1000 amu with unit resolutions of Q1 and Q3. The LC-tandem MS determination of flumazenil concentration was conducted in the multiple reaction monitoring positive-ion mode with transition ion pairs 304 → 258 and 304 → 276. Vaporized liquid nitrogen gas was used as the nebulizer, curtain, and collision gas in all 4000 QTrap LC–MS/MS studies.
Normal rat livers were obtained from healthy male SD rats weighing 400–450 g. […]

[2] = Flumazenil metabolization in rat liver microsomes (LC-DAD/tandem MS); type: in vitro ADME
Experimental: as §1
as §2, with “Vaporized liquid nitrogen gas was used as the nebulizer, curtain, and collision gas in all 4000 QTrap LC–MS/MS studies.” left out
Incubation solutions were prepared according to the manufacturer’s instructions. […] The supernatants were filtered through a 0.22 µm PVDF disk filter and analyzed using LC-DAD and tandem MS. […]

[3] = Radiochemical stability of [18F]flumazenil in 30% ethanol after end of synthesis; type: physicochemical; conditions: amber glass vial, room temperature, 8 h after end of synthesis (EOS)
[4] = In vitro serum stability of [18F]flumazenil (radio-TLC); conditions: for Radiochemical Purity (RCP, %) in serum: rat serum, 37 °C
Experimental: Serum preparation: healthy SD rats were deeply anesthetized with isoflurane gas (3% isoflurane in 50% oxygen, 1 mL/min). One milliliter of whole blood from healthy SD rats was withdrawn through the tail vein at room temperature and centrifuged at 3000 rpm for 10 min to obtain the prepared serum for stability testing.

Compound: COC(=O)c1ncn2c1CN(C)C(=O)c1cc(F)ccc1-2 [Metabolite M1]
M1 formation ([1]; flumazenil incubated in rat liver homogenate 0–250 min): relatively low amount

Compound: CN1Cc2c(C(=O)O)ncn2-c2ccc(F)cc2C1=O [Metabolite M2]
peak area of M2 increased by ([2]; up to 120 min incubation): 72%

Compound: CN1Cc2c(C(=O)OCCO)ncn2-c2ccc(F)cc2C1=O [Metabolite M3]
change of peak area of M3 ([2]; up to 120 min incubation): No significant increase

Compound: CCOC(=O)c1ncn2c1CN(C)C(=O)c1cc([18F])ccc1-2 [[^18F]flumazenil]
radiochemical purity in 30% ethanol [3]: > 90% | Radiochemical Purity (RCP, %) in serum ([4]; 0 min): 95.76% | Radiochemical Purity (RCP, %) in serum ([4]; 5 min): 93.28% | Radiochemical Purity (RCP, %) in serum ([4]; 10 min): 91.07% | Radiochemical Purity (RCP, %) in serum ([4]; 30 min): 87.46% | Radiochemical Purity (RCP, %) in serum ([4]; 60 min): 85.68% | Radiochemical Purity (RCP, %) in serum ([4]; 120 min): 79.95% | Radiochemical Purity (RCP, %) in serum ([4]; 240 min): 72.13% | intact [18F]flumazenil in serum ([4]; up to 1 h of incubation, regular conditions): > 85% | biotransformed metabolites in metabolism analysis ([1]; after 30 min, as worded in conclusions): about 50%

flumazenil detected, of the initial amount ([2]; 120 min incubation): approximately 22% | parent drug biotransformed (parent peak area) ([1]; rat liver homogenate, 37 °C, 4 h (240 min)): approximately 65%
Compound: CCOC(=O)c1ncn2c1CN(C)C(=O)c1cc(F)ccc1-2 [flumazenil, ethyl 8-fluoro-5-methyl-6-oxo-5,6-dihydro-4H-benzo[f]imidazo [1,5-a] [1, 4]diazepine-3-carboxylate]

Source: PMC10223822, “Identification of the Hepatic Metabolites of Flumazenil and their Kinetic Application in Neuroimaging” (Pharmaceuticals, 2023)
